Some test systems named below: SF-295 CNS; UACC-257 melanoma; SNB-75 CNS; HT29 colon; DMS 114 small cell lung; M14 melanoma; HCT-116 colon; LOX IMVI melanoma; SNB-78 CNS; HS 578T breast.
Holding throughout (assay): inhibition of tumour cell growth, NCI panel, 48 h

Structures are written as SMILES. Values joined by “and” are separate entries in the source; they are usually repeats but may differ in a detail not shown here. Identical values can stand only once.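 Assay format: 96-well plates, 48-hour exposure. GI50 = concentration required for 50% inhibition of growth. TGI marks complete inhibition of growth.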 Where only a bound is given, the exact number is not on record here.

In the case of `CC(C)(C)c1ccc(OCCOCCOc2ccc(C(C)(C)C)cc2S(N)(=O)=O)c(S(N)(=O)=O)c1`, the TGI in the assay with SF-295 CNS, with UACC-257 melanoma, with SNB-75 CNS, with HT29 colon, in the assay on DMS 114 small cell lung and in the assay on M14 melanoma was greater than 100 µM throughout. The TGI in the assay on HCT-116 colon, with LOX IMVI melanoma and with SNB-78 CNS was greater than 100 µM throughout.
`ON1CCc2c([nH]c3ccccc23)C1c1ccc(Cl)cc1` (stereo not given): the TGI was 91 µM in the assay with SF-295 CNS; greater than 100 µM in the assay with UACC-257 melanoma; greater than 100 µM in the assay on SNB-75 CNS; 40.1 µM with HT29 colon; greater than 100 µM in the assay on DMS 114 small cell lung; greater than 100 µM in the assay with M14 melanoma. The TGI is 15.4 µM with HCT-116 colon, 37.4 µM in the assay on LOX IMVI melanoma and greater than 100 µM in the assay on SNB-78 CNS.
As to `O=C1NC(=O)C2C3C=CC(C12)C1C2C(=O)NC(=O)C2C31` (stereo not given), the GI50 with HS 578T breast is 419 µM; with SF-295 CNS, 827 µM; with UACC-257 melanoma, greater than 1000 µM; in the assay on SNB-75 CNS, 291 µM; with HT29 colon, 657 µM; in the assay on DMS 114 small cell lung, greater than 60.5 µM. Further, the GI50 was greater than 973 µM in the assay with M14 melanoma; > 39.9 µM and 308 µM in the assay with HCT-116 colon. The TGI in the assay with HS 578T breast is 250 µM and > 562 µM; in the assay on SF-295 CNS, 199 µM and > 1000 µM; in the assay on UACC-257 melanoma, 250 µM and > 1000 µM; in the assay on SNB-75 CNS it was 249 µM and > 856 µM; with HT29 colon, 194 µM and > 1000 µM; in the assay with DMS 114 small cell lung it was 233 µM. The TGI is 250 µM and > 1000 µM with M14 melanoma; > 55.9 µM and 250 µM and > 1000 µM in the assay on HCT-116 colon; > 85.7 µM and 250 µM and > 1000 µM in the assay with LOX IMVI melanoma; 250 µM with SNB-78 CNS.
Take `O=c1c2cc(Br)ccc2nc(CNc2ccccc2)n1-c1ccccc1`: the TGI in the assay with SF-295 CNS is greater than 58 µM; with UACC-257 melanoma it was 98 µM; in the assay on SNB-75 CNS it was greater than 59.5 µM; in the assay with HT29 colon, 46.2 µM; in the assay with DMS 114 small cell lung, 25.6 µM; in the assay on M14 melanoma it was 47.6 µM. In addition, the TGI is 33.9 µM in the assay on HCT-116 colon, 19.6 µM in the assay with LOX IMVI melanoma and 57.9 µM with SNB-78 CNS.
For the compound `CCC12C=C(C(=O)OC)N3c4ccccc4C4CCN(CCC1)C2C43` (stereo not given), the TGI with SF-295 CNS, in the assay on UACC-257 melanoma, in the assay with SNB-75 CNS, in the assay with HT29 colon, with DMS 114 small cell lung and with M14 melanoma was greater than 100 µM each time. Moreover, the TGI in the assay on HCT-116 colon, in the assay on LOX IMVI melanoma and in the assay with SNB-78 CNS was greater than 100 µM in each case.
Turning to `C=C(C)c1nc(Oc2ccccc2)nc(Oc2ccccc2)n1`, the TGI with HS 578T breast is 44.1 µM; with SF-295 CNS it was 29.8 µM; in the assay with UACC-257 melanoma, 23 µM; with SNB-75 CNS it was 24.5 µM; in the assay with HT29 colon, 12.9 µM; with DMS 114 small cell lung, 8.79 µM. The TGI with M14 melanoma amounted to 11.3 µM; in the assay with HCT-116 colon, 10.5 µM; in the assay on LOX IMVI melanoma, 4.51 µM; in the assay with SNB-78 CNS, 26.8 µM.
Consider `N#CC1(CCCCl)CCCCC1`, for which the TGI with SF-295 CNS, with UACC-257 melanoma, in the assay with SNB-75 CNS, with HT29 colon, in the assay on DMS 114 small cell lung and with M14 melanoma was greater than 100 µM in each case. In addition, the TGI in the assay with HCT-116 colon, in the assay on LOX IMVI melanoma and in the assay on SNB-78 CNS was greater than 100 µM in each case.
On to `Nc1ccccc1C(=O)/C=C/c1ccccc1O`, for which the TGI in the assay with SF-295 CNS was greater than 100 µM; with UACC-257 melanoma, 53 µM; in the assay with SNB-75 CNS it was 68.9 µM; in the assay with HT29 colon it was greater than 100 µM; in the assay with DMS 114 small cell lung, greater than 100 µM; in the assay with M14 melanoma, greater than 100 µM. Also, the TGI in the assay with HCT-116 colon, with LOX IMVI melanoma and with SNB-78 CNS was greater than 100 µM throughout.
Turning to `O=C1c2ccccc2C2(O)N(c3ccccc3)C(=S)N(c3ccccc3)C12O` (stereo not given), the TGI in the assay with SF-295 CNS, with UACC-257 melanoma, in the assay on SNB-75 CNS, in the assay on HT29 colon, in the assay with DMS 114 small cell lung and with M14 melanoma was greater than 100 µM each time. Moreover, the TGI in the assay on HCT-116 colon, in the assay on LOX IMVI melanoma and in the assay on SNB-78 CNS was greater than 100 µM in each case.
In the case of `N#Cc1c(CC(=O)O)cc(=O)n2c1[nH]c1ccccc12`, the TGI with SF-295 CNS, with UACC-257 melanoma, in the assay on SNB-75 CNS, in the assay with HT29 colon, with DMS 114 small cell lung and in the assay with M14 melanoma was greater than 100 µM in each case. Besides, the TGI in the assay on HCT-116 colon, in the assay on LOX IMVI melanoma and in the assay on SNB-78 CNS was greater than 100 µM each time.
Take `Cc1ccccc1NC(=O)CC(=O)NNCC(=O)Nc1nnc(-c2ccccc2)s1`: the TGI is greater than 100 µM in the assay with SF-295 CNS; greater than 100 µM in the assay on UACC-257 melanoma; 63.8 µM in the assay with SNB-75 CNS; greater than 100 µM in the assay on HT29 colon; greater than 100 µM in the assay on DMS 114 small cell lung; greater than 100 µM in the assay on M14 melanoma. Further, the TGI with HCT-116 colon, with LOX IMVI melanoma and in the assay with SNB-78 CNS was greater than 100 µM in each case.
For the compound `O=C(CC1(O)C(=O)Nc2c(Cl)ccc(Cl)c21)c1ccc(Cl)cc1` (stereo not given), the TGI came to 83.4 µM in the assay with SF-295 CNS; 94.7 µM with UACC-257 melanoma; 64.9 µM in the assay on SNB-75 CNS; 73.2 µM in the assay on HT29 colon; 49.2 µM with DMS 114 small cell lung; 69.1 µM in the assay on M14 melanoma. The TGI in the assay on HCT-116 colon was 70.6 µM; in the assay on LOX IMVI melanoma, 37.3 µM; in the assay on SNB-78 CNS, greater than 100 µM.
Take `CN(C)CCNC(=O)c1cccc2c1nc(-c1cccnc1)c1ccccc12`: the TGI in the assay with SF-295 CNS is 20.1 µM; in the assay on UACC-257 melanoma, 16.1 µM; in the assay with SNB-75 CNS, 22 µM; with HT29 colon, 26.9 µM; with DMS 114 small cell lung, 18.8 µM; in the assay with M14 melanoma it was 19.9 µM. Besides, the TGI was determined as 13.8 µM in the assay on HCT-116 colon, 12.6 µM in the assay on LOX IMVI melanoma and 26.3 µM with SNB-78 CNS.
In the case of `COc1nc(N)nc2nc[nH]c12`, the GI50 with HS 578T breast was 603 µM; with SF-295 CNS, greater than 881 µM; with UACC-257 melanoma it was greater than 1000 µM; with SNB-75 CNS, 275 µM and 263 µM; in the assay on HT29 colon it was greater than 800 µM; with DMS 114 small cell lung, greater than 800 µM. For the same compound, the GI50 was 772 µM and 585 µM in the assay with M14 melanoma; 747 µM and 670 µM in the assay with HCT-116 colon; 677 µM and 489 µM with LOX IMVI melanoma; 684 µM with SNB-78 CNS. In addition, the TGI was 500 µM and > 1000 µM with HS 578T breast; greater than 1000 µM with SF-295 CNS; 500 µM and > 800 µM and > 1000 µM with UACC-257 melanoma; 342 µM and 679 µM and > 929 µM in the assay with SNB-75 CNS; 500 µM and > 800 µM and > 1000 µM in the assay on HT29 colon; 500 µM and > 800 µM with DMS 114 small cell lung. The TGI was 500 µM and 800 µM and > 1000 µM with M14 melanoma; 500 µM and 800 µM and > 1000 µM in the assay with HCT-116 colon; 500 µM and 800 µM and > 1000 µM in the assay on LOX IMVI melanoma; 500 µM and 800 µM in the assay with SNB-78 CNS.
`O=C(CC1(O)C(=O)Nc2c(Cl)cc(Cl)cc21)c1cccc([N+](=O)[O-])c1` (stereo not given): the TGI is 94.9 µM in the assay with HS 578T breast; greater than 100 µM with SF-295 CNS; 44.8 µM with UACC-257 melanoma; 68.2 µM in the assay on SNB-75 CNS; greater than 100 µM in the assay with HT29 colon; 43.3 µM in the assay on DMS 114 small cell lung. Further, the TGI in the assay with M14 melanoma is greater than 58 µM; in the assay on HCT-116 colon, 59 µM; with LOX IMVI melanoma, 35.5 µM; in the assay on SNB-78 CNS, greater than 100 µM.
With `CCOC(=O)C1C(NC(N)=O)N(Cc2ccccc2)C(=O)N1Cc1ccccc1` (stereo not given), the TGI with SF-295 CNS, in the assay with UACC-257 melanoma, with SNB-75 CNS, in the assay on HT29 colon, in the assay on DMS 114 small cell lung and in the assay with M14 melanoma was greater than 100 µM each time. The TGI with HCT-116 colon is greater than 100 µM; in the assay on LOX IMVI melanoma it was greater than 100 µM; in the assay with SNB-78 CNS it was 29.2 µM.
In the case of `COC1=CC(=O)C(O)=C(CC2(C)C(C)CCC3(C)C2CCCC3(C)C)C1=O` (stereo not given), the TGI in the assay on SF-295 CNS was found to be 16.3 µM; in the assay on UACC-257 melanoma it was 21.9 µM; in the assay with SNB-75 CNS it was 19 µM; in the assay with HT29 colon, 23.1 µM; in the assay with DMS 114 small cell lung, 8.99 µM; with M14 melanoma it was 7.65 µM. Also, the TGI is 21.3 µM in the assay on HCT-116 colon, 23.2 µM with LOX IMVI melanoma and greater than 100 µM in the assay on SNB-78 CNS.

Source of the values: PubChem BioAssay (NCI).
